Measured values reported in patent publication US20250170104A1, “INHIBITORS OF PSEUDOMONAS AERUGINOSA VIRULENCE FACTOR Lasß” (priority 2022, published 2025).
Values after ≈ are worked out from the molar mass of the structure shown. Like-named read-outs stand apart in the source and are kept apart here.

Experiments:
[1] = target: ADAM-17 (TACE) (Homo sapiens (Human), UniProt P78536); assay: ADAM-17 (TACE) inhibitor screening assay; type: biochemical; conditions: read-out: Selectivity IC50 TACE
Procedure: The ADAM-17 (TACE) Inhibitor Screening Assay Kit was purchased from Sigma-Aldrich. The assay was performed according to the guidelines of the manufacturer using ilomastat as a positive control. Fluorescence signals were measured in a CLARIOstar plate reader (BMG Labtech).

[2] = Kinetic turbidimetric solubility assay; type: physicochemical; conditions: PBS
Procedure: The desired compounds were sequentially diluted in DMSO in a 96-well plate. 1.5 μL of each well were transferred into another 96-well plate and mixed with 148.5 μL of PBS. Plates were shaken for 5 min at 600 rpm at room temperature, and the absorbance at 620 nm was measured. Absorbance values were normalized by blank subtraction and plotted using GraphPad Prism 8.4.2 (GraphPad Software, San Diego, CA, USA). Solubility (S) was determined based on the First X value of AUC function using a threshold of 0.005.

[3] = target: LasB (Pseudomonas aeruginosa (strain ATCC 15692 / DSM 22644 / CIP 104116 / JCM 14847 / LMG 12228 / 1C / PRS 101 / PAO1), UniProt P14756); assay: In vitro LasB activity assay (fluorogenic substrate); type: biochemical; conditions: LasB 0.3 nM, substrate 150 μM, mean ± SD
Procedure: The LasB activity assay was performed as described previously (Nishino N, Powers J C. Pseudomonas aeruginosa elastase. Development of a new substrate, inhibitors, and an affinity ligand. J Biol Chem. 1980 Apr. 25; 255(8):3482-6) using the fluorogenic substrate 2-Aminobenzoyl-L-Alanyl-Glycyl-L-Leucyl-L-Alanyl-para-Nitro-Benzyl-Amide, purchased from Peptides International (Louisville, KY, USA) and vivitide, LLC (Gardner, MA, USA).
Fluorescence intensity was measured for 60 min at 37° C. in black 384-well microtiter plates (Greiner BioOne, Kremsmünster, Austria) using a CLARIOstar microplate reader (BMG Labtech, Ortenberg, Germany) with an excitation wavelength of […] and an emission wavelength of 415±20 nm. The assay was performed in a final volume of 50 μL of assay buffer (50 mM Tris, pH 7.2, 2.5 mM CaCl2), 0.075% Pluronic F-127, 5% DMSO) containing LasB at a final concentration of […] 0.3 nM and the substrate at 150 μM. Before substrate addition, compounds were preincubated with the enzyme at 37° C. for 15 min. Experiments were performed in duplicates and repeated for at least two times. Blank controls without enzyme were performed. After blank subtraction, the slope of samples containing inhibitors (v) was divided by the slope of a simultaneously started uninhibited enzymatic reaction (v0). IC50 values were determined with nonlinear regression using GraphPad Prism 5 (Graph Pad Software, San Diego, CA, USA) and are given as mean values ±standard deviation (SD). The slope factor was constrained to 1.

[4] = system: P. aeruginosa PA-14; assay: MIC determination assay / antibacterial activity; type: cell-based; conditions: Pseudomonas aeruginosa, PA14
Procedure: Assays regarding the determination of the minimum inhibitory concentration (MIC) were performed as described previously (Elgaher W A M, Fruth M, Groh M, Haupenthal J, Hartmann R W. Expanding the scaffold for bacterial RNA polymerase inhibitors: design, synthesis and structure-activity relationships of ureido-heterocyclic-carboxylic acids. RSC Adv. 2013 Dec. 3; 4(5):2177-94). The experiments were based on the P. aeruginosa strain PA14. For the case that no MIC value could be determined due to activity reasons, percentage (%) inhibition at 100 μM (or lower, depending on the solubility of the compounds) was calculated. The OD600 was measured 0 and 16 h after inhibitor addition in a CLARIOstar Platereader (BMG Labtech, Ortenberg, Germany).

[5] = in vitro; type: in vitro ADME; conditions: mouse, s9
Procedure: For the evaluation of combined phase I and phase II metabolic stability, the compound (1 μM) was incubated with 1 mg/mL pooled liver S9 fraction (Xenotech), 2 mM NADPH, 1 mM UDPGA, 10 mM MgCl2, 5 mM GSH and 0.1 mM PAPS at 37° C. for 0, 5, 15, 30 and 60 min. The metabolic stability of Testosterone (1 μM), verapamil (1 μM) and ketoconazol (1 μM) were determined in parallel to confirm the enzymatic activity of the S9 fraction. The incubation was stopped by precipitation of S9 enzymes with 2 volumes of cold acetonitrile containing internal standard (150 nM Diphenhydramine). Samples were stored on ice for 10 min and precipitated protein was removed by centrifugation (15 min, 4° C., 4,000 rpm). The remaining test compound at different time points was analyzed by LC-MS/MS (TSQ Quantum Access MAX, Thermo Fisher, Dreieich, Germany) and used to determine half-life (t½).

[6] = target: HDAC8 (Homo sapiens (Human), UniProt Q9BY41); assay: HDAC inhibition; type: biochemical; conditions: read-out: Selectivity IC50 HDAC8
Procedure: (§1) HDAC3 and HDAC8 Inhibitor Screening Assay kits were purchased from Sigma-Aldrich. The assay was performed according to the guidelines of the manufacturer using trichostatin as a positive control. Fluorescence signals were measured in a CLARIOstar plate reader (BMG Labtech).

[7] = target: HDAC3 (Homo sapiens (Human), UniProt O15379); assay: HDAC inhibition; type: biochemical; conditions: read-out: Selectivity IC50 HDAC3
Procedure: as §1

[8] = Cytotoxicity assay; type: cell-based; conditions: human
Procedure: HepG2, HEK293 or A549 cells (2×10^5 cells per well) were seeded in 24-well, flat-bottomed plates. Culturing of cells, incubations, and OD measurements were performed as described previously (Int. J. Cancer 2007, 121, 206-210). Twenty-four hours after seeding the cells, the incubation was started by the addition of test compound in a final DMSO concentration of 1%. The living cell mass was determined after 48 h. At least two independent measurements were performed for each compound.

[9] = target: MMP1 (Homo sapiens (Human), UniProt P03956); assay: Selectivity assay: inhibition of MMPs; type: biochemical
Procedure: (§2) MMPs-1, -2, -3, -7, -8 and -14 along with the SensoLyte 520 Generic MMP Activity Kit*Fluorimetric* were purchased from AnaSpec (Fremont, CA, USA). The assay was performed as described previously (Schönauer E, Kany A M, Haupenthal J, Hüsecken K, Hoppe I J, Voos K, et al. Discovery of a Potent Inhibitor Class with High Selectivity toward Clostridial Collagenases. J Am Chem Soc. 2017 Sep. 13; 139(36):12696-703) using batimastat as a positive control according to the guidelines of the manufacturer.

[10] = target: MMP3 (Homo sapiens (Human), UniProt P08254); assay: Selectivity assay: inhibition of MMPs; type: biochemical
Procedure: as §2

[11] = target: MMP2 (Homo sapiens (Human), UniProt P08253); assay: Selectivity assay: inhibition of MMPs; type: biochemical
Procedure: as §2

[12] = target: purified LasB (Pseudomonas aeruginosa (strain ATCC 15692 / DSM 22644 / CIP 104116 / JCM 14847 / LMG 12228 / 1C / PRS 101 / PAO1), UniProt P14756); assay: Ex vivo lung homogenate assay with purified LasB; type: biochemical
Procedure: The lung homogenate was prepared from pig lung, which was stored at −80° C. After thawing the lung tissue was cut into pieces of approximately 1.5 cm diameter and 0.5 to 1 cm thickness. Subsequently the bits were flash frozen in liquid nitrogen and lyophilized for 48 h.
1.2 g dried tissue was then ball milled using an IKA Tube Drive and the respective 50 mL ball milling tubes. 20 steel balls were used with target rpm of 6000, reversing the spinning direction every 30 seconds for a total of 10 min. After 10 min the tube was detached and inverted to loosen the powder. The ball milling was repeated with the same setup twice again.
To the powdery tissue 50 mL of a 10 mM Tris buffer including 2 mM CaCl2 with a pH of 8.0 was added and the IKA Tube Drive used again with the same settings as described before for 10 min to disperse the tissue powder in the aqueous buffer. The yielded lung homogenate was pipetted into 15 mL falcons and stored at −80° C. until further use.
To perform the LasB activity/inhibition assay a compound dilution was prepared in DMSO yielding a 100 fold concentration of the final concentration in the assay. LasB was diluted from a higher stock solution to a 6 μM stock in the same buffer as used for the lung homogenate. The assay was performed in Eppis. With a stepper pipette 10 μL of the prepared LasB solution was added to the Eppis to yield a final protein concentration of 300 nM. Then 188 μL of thawed lung homogenate was added with a stepper pipette. Finally, 2 μL of the 100 fold compound dilutions were added and mixed by pipetting up and down. The Eppis were incubated at 37° C. with a shaking speed of 1000 rpm for 4 h.
After 4 h, the Eppis were centrifuged at a speed of 14,000 rpm, 4° C. for 10 min to separate the soluble cleaved Elastin fragments from the non-cleaved insoluble part. 100 μL of the obtained supernatant was transferred to new Eppis, and the same volume of concentrated hydrochloric acid added. […]
Peak areas and response ratios were calculated using Xcalibur Quan browser with Amprolium set as internal standard. […]

[13] = aqueous buffer, kinetic from dmso stock

Chain of LasB (P14756 198-498): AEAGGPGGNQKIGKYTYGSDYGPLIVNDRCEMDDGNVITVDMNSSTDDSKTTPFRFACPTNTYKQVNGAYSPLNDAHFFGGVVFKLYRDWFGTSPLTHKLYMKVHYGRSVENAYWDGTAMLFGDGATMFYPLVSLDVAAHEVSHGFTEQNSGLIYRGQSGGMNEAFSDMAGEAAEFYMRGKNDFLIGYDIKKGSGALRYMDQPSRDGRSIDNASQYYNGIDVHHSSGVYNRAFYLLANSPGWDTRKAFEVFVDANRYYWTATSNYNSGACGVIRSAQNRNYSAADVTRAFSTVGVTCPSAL
Chain of purified LasB (P14756 198-498): as above
Chain of MMP2 (P08253 110-660): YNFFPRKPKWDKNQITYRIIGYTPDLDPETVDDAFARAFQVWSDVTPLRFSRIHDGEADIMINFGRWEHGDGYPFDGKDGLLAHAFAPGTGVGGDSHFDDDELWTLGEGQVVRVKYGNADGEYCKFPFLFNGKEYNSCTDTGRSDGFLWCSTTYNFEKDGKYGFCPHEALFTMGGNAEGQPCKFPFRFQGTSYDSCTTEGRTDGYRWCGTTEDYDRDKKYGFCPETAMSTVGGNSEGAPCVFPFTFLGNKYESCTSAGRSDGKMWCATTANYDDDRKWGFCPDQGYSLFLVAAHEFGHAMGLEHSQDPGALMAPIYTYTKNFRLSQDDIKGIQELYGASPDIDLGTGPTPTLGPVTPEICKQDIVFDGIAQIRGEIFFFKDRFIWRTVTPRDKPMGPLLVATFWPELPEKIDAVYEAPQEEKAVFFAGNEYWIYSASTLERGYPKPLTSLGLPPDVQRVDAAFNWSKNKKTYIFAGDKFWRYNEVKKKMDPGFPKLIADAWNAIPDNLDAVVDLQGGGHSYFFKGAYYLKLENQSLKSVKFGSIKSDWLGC
Chain of HDAC8 (Q9BY41 whole entry): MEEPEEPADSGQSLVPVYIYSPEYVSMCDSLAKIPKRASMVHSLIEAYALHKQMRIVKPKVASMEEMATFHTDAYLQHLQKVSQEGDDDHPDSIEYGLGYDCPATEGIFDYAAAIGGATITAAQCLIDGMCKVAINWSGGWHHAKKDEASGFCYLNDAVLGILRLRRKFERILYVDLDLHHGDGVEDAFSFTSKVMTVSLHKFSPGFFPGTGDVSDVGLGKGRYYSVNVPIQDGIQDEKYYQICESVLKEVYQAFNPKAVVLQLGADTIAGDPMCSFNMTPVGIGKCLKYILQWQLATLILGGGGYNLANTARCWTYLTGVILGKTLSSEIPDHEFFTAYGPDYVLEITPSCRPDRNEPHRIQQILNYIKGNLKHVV
Chain of MMP1 (P03956 100-469): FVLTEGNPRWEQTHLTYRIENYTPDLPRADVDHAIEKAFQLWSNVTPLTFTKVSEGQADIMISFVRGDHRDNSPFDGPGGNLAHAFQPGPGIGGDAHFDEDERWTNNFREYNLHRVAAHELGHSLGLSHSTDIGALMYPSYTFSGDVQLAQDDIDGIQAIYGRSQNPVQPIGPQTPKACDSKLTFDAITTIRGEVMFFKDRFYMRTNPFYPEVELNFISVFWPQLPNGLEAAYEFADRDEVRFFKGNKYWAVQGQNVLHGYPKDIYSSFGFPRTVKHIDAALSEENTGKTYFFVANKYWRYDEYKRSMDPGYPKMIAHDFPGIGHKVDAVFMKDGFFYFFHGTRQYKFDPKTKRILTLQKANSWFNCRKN
Chain of ADAM-17 (TACE) (P78536 whole entry, looked up): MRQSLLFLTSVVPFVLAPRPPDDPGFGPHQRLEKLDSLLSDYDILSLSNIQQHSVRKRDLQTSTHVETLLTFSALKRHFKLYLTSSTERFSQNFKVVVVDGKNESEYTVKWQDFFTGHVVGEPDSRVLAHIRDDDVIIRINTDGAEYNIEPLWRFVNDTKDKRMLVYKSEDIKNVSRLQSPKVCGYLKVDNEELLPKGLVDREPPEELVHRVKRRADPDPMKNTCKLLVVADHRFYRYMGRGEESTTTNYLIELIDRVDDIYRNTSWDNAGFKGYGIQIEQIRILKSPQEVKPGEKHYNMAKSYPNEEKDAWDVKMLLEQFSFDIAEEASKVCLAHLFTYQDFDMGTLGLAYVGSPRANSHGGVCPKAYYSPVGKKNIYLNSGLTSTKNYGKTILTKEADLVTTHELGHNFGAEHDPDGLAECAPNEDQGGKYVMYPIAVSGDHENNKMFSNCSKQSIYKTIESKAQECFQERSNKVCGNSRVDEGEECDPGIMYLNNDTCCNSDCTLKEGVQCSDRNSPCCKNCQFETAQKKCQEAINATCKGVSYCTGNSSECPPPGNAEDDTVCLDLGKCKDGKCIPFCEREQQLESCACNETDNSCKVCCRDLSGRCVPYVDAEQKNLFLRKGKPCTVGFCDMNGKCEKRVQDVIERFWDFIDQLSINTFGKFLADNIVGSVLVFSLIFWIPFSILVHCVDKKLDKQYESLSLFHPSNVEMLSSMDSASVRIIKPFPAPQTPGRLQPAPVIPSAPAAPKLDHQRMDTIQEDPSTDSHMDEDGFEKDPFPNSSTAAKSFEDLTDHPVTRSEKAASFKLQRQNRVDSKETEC
Chain of MMP3 (P08254 100-477): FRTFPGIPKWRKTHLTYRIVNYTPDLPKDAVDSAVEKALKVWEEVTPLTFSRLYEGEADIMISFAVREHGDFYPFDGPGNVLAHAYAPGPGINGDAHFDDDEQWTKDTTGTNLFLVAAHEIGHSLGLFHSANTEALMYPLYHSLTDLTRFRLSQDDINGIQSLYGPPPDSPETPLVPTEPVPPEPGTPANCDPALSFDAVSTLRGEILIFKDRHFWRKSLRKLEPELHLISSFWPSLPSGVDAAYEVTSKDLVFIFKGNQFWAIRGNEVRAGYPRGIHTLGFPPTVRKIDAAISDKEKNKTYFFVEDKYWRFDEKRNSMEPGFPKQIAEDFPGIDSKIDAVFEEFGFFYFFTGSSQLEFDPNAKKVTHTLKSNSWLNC

Structure (SMILES) | IC50 [1] | solubility at 5 min [2] | solubility at 5 min [2, 13] | IC50 [3] | IC50 [4] | half-life at 1 μM [5] | IC50 [6] | IC50 [7] | IC50 at 48 h ([8]; A549 cells) | IC50 at 48 h ([8]; HEK293 cells) | IC50 at 48 h ([8]; HepG2 cells) | IC50 [9] | IC50 [10] | IC50 [11] | IC50 [12] | IC50 ([12]; pig lung homogenate, 300 nM LasB, 4 h, desmosine LC-MSMS, read-out: IC50 ex vivo lung homogenate)
CC(C)CC(C(=O)NO)C(=O)Nc1ccc(Cn2cc(CNS(=O)(=O)c3ccc(I)cc3)nn2)cc1 (centres unmarked) [Hit L1, 2-(Hydroxycarbamoyl)-N-[4-[[4-[[(4-iodophenyl)sulfonylamino]methyl]triazol-1-yl]methyl]phenyl]-4-methyl-pentanamide] | > 100 µM | 142 µM (≈ 89 µg/mL) | 106 ± 19 µM (≈ 66.4 µg/mL) | 0.0024 ± 0.0001 µM | > 100 µM | 30.1 ± 1.5 min | > 100 µM | > 100 µM | > 100 µM | > 100 µM | > 100 µM | > 100 µM | > 100 µM | > 100 µM | – | –
CC(C)CC(C(=O)NO)C(=O)Nc1ccc(Cn2cc(CNS(=O)(=O)c3ccc(Cl)cc3)nn2)cc1 (centres unmarked) [Compound 161, N-[4-[[4-[[(4-Chlorophenyl)sulfonylamino]methyl]triazol-1-yl]methyl]phenyl]-2-(hydroxycarbamoyl)-4-methyl-pentanamide] | – | – | > 200 µM | 0.0017 ± 0.0001 µM | – | 33.9 ± 1 min | – | – | – | – | – | – | – | – | 0.186 µM | –
CC(C)C(C(=O)NO)C(=O)Nc1ccc(Cn2cc(CNS(=O)(=O)c3ccc(I)cc3)nn2)cc1 (centres unmarked) [Compound 182, 2-(Hydroxycarbamoyl)-N-[4-[[4-[[(4-iodophenyl)sulfonylamino]methyl]triazol-1-yl]methyl]phenyl]-3-methyl-butanamide] | – | – | – | 0.0019 ± 0.0001 µM | – | – | – | – | – | – | – | – | – | – | – | 0.127 µM
